Results on seven compounds are retold here after patent US20020072530A1, “Indole and benzimidazole inhibitors of factor Xa” (priority 2000, published 2002).

Format in all cases: biochemical
One assay deals with factor Xa (Homo sapiens, UniProt P00742). Briefly: Factor Xa amidolytic assay (chromogenic substrate S-2765). How it is done:
(§1) The compounds of the present invention are dissolved in buffer to give solutions containing concentrations such that assay concentrations range from about 0 to about 100 μM. In the assays for thrombin, prothrombinase and factor Xa, a synthetic chromogenic substrate is added to a solution containing test compound and the enzyme of interest and the residual catalytic activity of that enzyme is determined spectrophotometrically. The IC50 of a compound is determined from the substrate turnover. The IC50 is the concentration of test compound giving about 50% inhibition of the substrate turnover.
(§2) The factor Xa and thrombin assays were performed at room temperature, in 0.02 M Tris-HCl buffer, pH 7.5, containing 0.15 M NaCl. The rates of hydrolysis of the para-nitroanilide substrate S-2765 (Chromogenix) for factor Xa, and the substrate Chromozym TH (Boehringer Mannheim) for thrombin following preincubation of the enzyme with inhibitor for 5 minutes at room temperature, and were determined using the Softmax 96-well plate reader (Molecular Devices), monitored at 405 nm to measure the time dependent appearance of p-nitroaniline.

For a further assay, the target named is thrombin (Homo sapiens, UniProt P00734). Put plainly: Thrombin amidolytic assay (chromogenic substrate Chromozym TH). How it is done:
as §1, §2

For another assay, the target named is prothrombinase complex (Homo sapiens, UniProt P00742). Briefly: Prothrombinase inhibition assay in a plasma free system. Particulars: table of Examples 6-18; unit inferred; read-out: IIASE (IC50). How it is done:
as §1
The prothrombinase inhibition assay was performed in a plasma free system with modifications to the method described by Sinha, U. et al., Thromb. Res., 75, 427-436 (1994). Specifically, the activity of the prothrombinase complex was determined by measuring the time course of thrombin generation using the p-nitroanilide substrate Chromozym TH. The assay consists of preincubation (5 minutes) of selected compounds to be tested as inhibitors with the complex formed from factor Xa (0.5 nM), factor Va (2 nM), phosphatidyl serine:phosphatidyl choline (25:75, 20 μM) in 20 mM Tris-HCl buffer, pH 7.5, containing 0.15 M NaCl, 5 mM CaCl2 and 0.1% bovine serum albumin. Aliquots from the complex-inhibitor mixture were added to prothrombin (1 nM) and Chromozym TH (0.1 mM). The rate of substrate cleavage was monitored at 405 nm for two minutes. Eight different concentrations of inhibitor were assayed in duplicate. A standard curve of thrombin generation by an equivalent amount of untreated complex was used for determination of percent inhibition.

The mark [1] stands for this setting: table of Examples 6-18, unit inferred, read-out: XA (IC50).
Where [2] appears, read: table of Examples 6-18, unit inferred, read-out: IIA (IC50).
Setting [3] is: Table 5, read-out: Inhibitory Activity (IC50) Factor Xa.
Setting [4] is: Table 5, read-out: Inhibitory Activity (IC50) Thrombin.

Read-outs that look alike come from different tables or passages of the source.

Chain of factor Xa (P00742 235-488 limits assumed): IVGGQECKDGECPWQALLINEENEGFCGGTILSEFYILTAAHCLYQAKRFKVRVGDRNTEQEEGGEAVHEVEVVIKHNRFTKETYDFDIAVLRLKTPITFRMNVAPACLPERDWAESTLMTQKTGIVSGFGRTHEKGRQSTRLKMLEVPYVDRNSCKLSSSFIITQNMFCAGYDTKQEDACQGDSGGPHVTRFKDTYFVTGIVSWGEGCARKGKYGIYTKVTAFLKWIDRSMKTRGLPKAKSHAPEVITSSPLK
Chain of factor Xa (P00742 41-179 limits assumed): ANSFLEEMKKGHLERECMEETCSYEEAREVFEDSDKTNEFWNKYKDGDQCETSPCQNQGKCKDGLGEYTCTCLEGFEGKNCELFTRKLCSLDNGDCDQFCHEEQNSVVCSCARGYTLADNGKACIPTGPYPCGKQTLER
Chain of prothrombinase complex (P00742 235-488 limits assumed): as the sequence (P00742 235-488 limits assumed) above
Chain of prothrombinase complex (P00742 41-179 limits assumed): as the sequence (P00742 41-179 limits assumed) above
Chain of prothrombinase complex (P12259 29-737 partner limits assumed): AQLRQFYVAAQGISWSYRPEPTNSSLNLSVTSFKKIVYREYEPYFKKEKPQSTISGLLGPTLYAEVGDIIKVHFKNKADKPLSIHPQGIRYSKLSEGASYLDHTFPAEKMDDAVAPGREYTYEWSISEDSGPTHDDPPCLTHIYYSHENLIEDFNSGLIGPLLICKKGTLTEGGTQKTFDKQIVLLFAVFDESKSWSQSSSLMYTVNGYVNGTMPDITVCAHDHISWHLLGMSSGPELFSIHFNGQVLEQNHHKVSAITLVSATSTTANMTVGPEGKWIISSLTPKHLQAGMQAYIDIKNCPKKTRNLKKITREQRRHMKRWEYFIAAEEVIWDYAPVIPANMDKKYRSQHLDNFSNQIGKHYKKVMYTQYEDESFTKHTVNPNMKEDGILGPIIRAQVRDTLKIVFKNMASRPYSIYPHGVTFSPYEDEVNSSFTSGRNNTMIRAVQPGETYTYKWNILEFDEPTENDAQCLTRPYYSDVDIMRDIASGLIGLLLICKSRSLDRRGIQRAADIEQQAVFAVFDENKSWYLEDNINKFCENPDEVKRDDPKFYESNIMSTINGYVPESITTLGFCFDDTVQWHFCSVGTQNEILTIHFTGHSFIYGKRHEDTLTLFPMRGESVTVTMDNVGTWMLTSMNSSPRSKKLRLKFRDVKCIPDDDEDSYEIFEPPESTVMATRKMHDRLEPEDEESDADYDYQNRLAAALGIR
Chain of prothrombinase complex (P12259 1574-2224 partner limits assumed): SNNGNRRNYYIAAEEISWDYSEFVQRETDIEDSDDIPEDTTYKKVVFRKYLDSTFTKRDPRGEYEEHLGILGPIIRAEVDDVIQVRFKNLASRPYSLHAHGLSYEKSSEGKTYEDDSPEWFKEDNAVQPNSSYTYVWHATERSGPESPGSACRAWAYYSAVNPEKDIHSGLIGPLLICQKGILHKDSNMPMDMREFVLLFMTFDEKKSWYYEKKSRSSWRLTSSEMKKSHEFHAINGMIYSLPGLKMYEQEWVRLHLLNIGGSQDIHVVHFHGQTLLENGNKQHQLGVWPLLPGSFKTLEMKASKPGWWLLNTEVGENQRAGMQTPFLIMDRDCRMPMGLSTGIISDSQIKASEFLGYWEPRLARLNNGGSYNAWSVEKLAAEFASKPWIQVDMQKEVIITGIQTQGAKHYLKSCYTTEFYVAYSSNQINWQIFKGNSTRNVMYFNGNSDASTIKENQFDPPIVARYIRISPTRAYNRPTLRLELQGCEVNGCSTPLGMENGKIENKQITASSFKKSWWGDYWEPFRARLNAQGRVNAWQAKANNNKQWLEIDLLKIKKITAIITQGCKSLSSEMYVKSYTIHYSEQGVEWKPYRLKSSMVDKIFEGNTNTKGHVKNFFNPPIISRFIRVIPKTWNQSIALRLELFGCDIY

With `CCn1c(Cn2c(C(C)C)nc3ccc(OC4CCN(C(C)=N)CC4)cc32)cc2ccc(C(=N)N)cc21` [Example 6], the IC50 is 148 nM at factor Xa (setting [1]), 16.4 nM at thrombin (setting [2]) and 139 nM on prothrombinase complex.

In the case of `CCn1c(Cn2c(C(C)C)nc3cc(OC4CCN(C(C)=N)CC4)ccc32)cc2ccc(C(=N)N)cc21` [Example 7], the IC50 at factor Xa (setting [3]) worked out at 1.2 nM; on factor Xa (setting [1]), 1.2 nM; at thrombin (setting [4]), 805 nM; at thrombin (setting [2]), 805 nM; on prothrombinase complex it was 9.67 nM.

As to `CC(C)c1nc2cc(OC3CCN(C)CC3)ccc2n1Cc1cccc(-c2cccc(C(=N)N)c2)c1` [Example 8], the IC50 on factor Xa (setting [1]) was 32.2 nM; on thrombin (setting [2]), 29000 nM; on prothrombinase complex it was 375 nM.

In the case of `CC(=N)N1CCC(Oc2ccc3nc(C(C)C)n(Cc4cccc(-c5cccc(C(=N)N)c5)c4)c3c2)CC1` [Example 9], the IC50 was found to be 658 nM at factor Xa (setting [1]), 9610 nM at thrombin (setting [2]) and 9040 nM at prothrombinase complex.

`CC(=N)N1CCC(Oc2ccc3c(c2)nc(C(C)C)n3Cc2cccc(-c3cccc(C(=N)N)c3)c2)CC1` [Example 10]: the IC50 on factor Xa (setting [3]) came to 5.73 nM; on factor Xa (setting [1]), 5.73 nM; on thrombin (setting [4]), 26300 nM; on thrombin (setting [2]) it was 26300 nM; at prothrombinase complex it was 2.56 nM.

As to `CC(=N)N1CCC(Oc2ccc3nc(C(C)C)n(Cc4ccc5ccc(C(=N)N)cc5c4)c3c2)CC1` [Example 11], the IC50 on factor Xa (setting [1]) worked out at 10.4 nM; at prothrombinase complex, 17 nM.

For the compound `CCOC(=O)c1nc2cc(OC3CCN(C(C)=N)CC3)ccc2n1Cc1cc2ccc(C(=N)N)cc2n1CC` [Example 18], the IC50 on factor Xa (setting [3]) is 18 nM; at factor Xa (setting [1]), 18 nM; at thrombin (setting [4]), 1300 nM; on thrombin (setting [2]), 1360 nM; at prothrombinase complex, 167 nM.

Broadly, the IC50 is the concentration needed to halve the response being measured.
